# Active and inactive are the calls of the source. The calls are words filed in the database; no cut-off is given here.
# Assays:
# [1] = tested on: OVCAR-4; experiment: Growth inhibition of human OVCAR4 cells assessed as cell growth at 10 uM after 48 hrs by sulforhodamine B assay relative to control; assay type: functional; settings: OVCAR-4, 48 h, read-out: Activity
# [2] = tested on: HepG2; experiment: Induction of ROS generation in human HepG2 cells at IC50 after 5 to 6 hrs by DCFDA staining-based spectroflourimetric analysis; assay type: functional, cell-based
# [3] = tested on: MOLT-4; experiment: Growth inhibition of human MOLT4 cells assessed as cell growth at 10 uM after 48 hrs by sulforhodamine B assay relative to control; assay type: functional; settings: MOLT-4, 48 h, read-out: Activity
# [4] = tested on: MDA-MB-468; experiment: Growth inhibition of human MDA-MB-468 cells assessed as cell growth at 10 uM after 48 hrs by sulforhodamine B assay relative to control; assay type: functional; settings: MDA-MB-468, 48 h, read-out: Activity
# [5] = target: Calcium/calmodulin-dependent protein kinase type II subunit alpha (Homo sapiens) (UniProt Q9UQM7); experiment: Inhibition of CAMK2 alpha (unknown origin) at 10 uM after 60 mins by ADP-Glo luminescence assay
# [6] = tested on: SF-539; experiment: Growth inhibition of human SF539 cells assessed as cell growth at 10 uM after 48 hrs by sulforhodamine B assay relative to control; assay type: functional; settings: SF-539, 48 h, read-out: Activity
# [7] = tested on: UO-31; experiment: Growth inhibition of human UO31 cells assessed as cell growth at 10 uM after 48 hrs by sulforhodamine B assay relative to control; assay type: functional; settings: UO-31, 48 h, read-out: Activity
# [8] = tested on: IGROV-1; experiment: Growth inhibition of human IGROV1 cells assessed as cell growth at 10 uM after 48 hrs by sulforhodamine B assay relative to control; assay type: functional; settings: IGROV-1, 48 h, read-out: Activity
# [9] = tested on: Hs-578T; experiment: Growth inhibition of human Hs 578T cells assessed as cell growth at 10 uM after 48 hrs by sulforhodamine B assay relative to control; assay type: functional; settings: read-out: Activity
# [10] = target: Serine/threonine-protein kinase pim-1 (Homo sapiens) (UniProt P11309); experiment: Inhibition of PIM1 (unknown origin) at 10 uM after 60 mins by ADP-Glo luminescence assay
# [11] = tested on: HCT-116; experiment: Growth inhibition of human HCT116 cells assessed as cell growth at 10 uM after 48 hrs by sulforhodamine B assay relative to control; assay type: functional; settings: HCT-116, 48 h, read-out: Activity
# [12] = tested on: MCF7; experiment: Induction of apoptosis in human MCF7 cells assessed as necrotic cells at IC50 after 24 hrs by Annexin V-FITC/propidium iodide staining-based flow cytometric analysis (reference value: 0.27%); assay type: functional
# [13] = tested on: COLO 205; experiment: Growth inhibition of human COLO205 cells assessed as cell growth at 10 uM after 48 hrs by sulforhodamine B assay relative to control; assay type: functional; settings: COLO 205, 48 h, read-out: Activity
# [14] = tested on: HCT-15; experiment: Growth inhibition of human HCT15 cells assessed as cell growth at 10 uM after 48 hrs by sulforhodamine B assay relative to control; assay type: functional; settings: HCT-15, 48 h, read-out: Activity
# [15] = tested on: SW-620; experiment: Growth inhibition of human SW620 cells assessed as cell growth at 10 uM after 48 hrs by sulforhodamine B assay relative to control; assay type: functional; settings: SW-620, 48 h, read-out: Activity
# [16] = tested on: HOP-92; experiment: Growth inhibition of human HOP92 cells assessed as cell growth at 10 uM after 48 hrs by sulforhodamine B assay relative to control; assay type: functional; settings: HOP-92, 48 h, read-out: Activity
# [17] = tested on: DU-145; experiment: Growth inhibition of human DU145 cells assessed as cell growth at 10 uM after 48 hrs by sulforhodamine B assay relative to control; assay type: functional; settings: DU-145, 48 h, read-out: Activity
# [18] = tested on: TK-10; experiment: Growth inhibition of human TK10 cells assessed as cell growth at 10 uM after 48 hrs by sulforhodamine B assay relative to control; assay type: functional; settings: TK-10, 48 h, read-out: Activity
# [19] = tested on: SK-OV-3; experiment: Growth inhibition of human SKOV3 cells assessed as cell growth at 10 uM after 48 hrs by sulforhodamine B assay relative to control; assay type: functional; settings: SK-OV-3, 48 h, read-out: Activity
# [20] = target: Ribosomal protein S6 kinase beta-1 (Homo sapiens) (UniProt P23443); experiment: Inhibition of S6K (unknown origin) at 10 uM after 60 mins by ADP-Glo luminescence assay
# [21] = tested on: OVCAR-3; experiment: Growth inhibition of human OVCAR3 cells assessed as cell growth at 10 uM after 48 hrs by sulforhodamine B assay relative to control; assay type: functional; settings: OVCAR-3, 48 h, read-out: Activity
# [22] = tested on: KM12; experiment: Growth inhibition of human KM12 cells assessed as cell growth at 10 uM after 48 hrs by sulforhodamine B assay relative to control; assay type: functional; settings: KM12, 48 h, read-out: Activity
# [23] = tested on: UACC-257; experiment: Growth inhibition of human UACC257 cells assessed as cell growth at 10 uM after 48 hrs by sulforhodamine B assay relative to control; assay type: functional; settings: UACC-257, 48 h, read-out: Activity
# [24] = tested on: K562; experiment: Growth inhibition of human K562 cells assessed as cell growth at 10 uM after 48 hrs by sulforhodamine B assay relative to control; assay type: functional; settings: K562, 48 h, read-out: Activity
# [25] = tested on: MDA-MB-435; experiment: Growth inhibition of human MDA-MB-435 cells assessed as cell growth at 10 uM after 48 hrs by sulforhodamine B assay relative to control; assay type: functional; settings: MDA-MB-435, 48 h, read-out: Activity
# [26] = tested on: MDA-MB-435S; experiment: Induction of apoptosis in human MDA-MB-435S cells assessed as necrotic cells at IC50 after 24 hrs by Annexin V-FITC/propidium iodide staining-based flow cytometric analysis (reference value: 0.64%); assay type: functional
# [27] = tested on: SN12C; experiment: Growth inhibition of human SN12C cells assessed as cell growth at 10 uM after 48 hrs by sulforhodamine B assay relative to control; assay type: functional; settings: read-out: Activity
# [28] = tested on: U-251; experiment: Growth inhibition of human U251 cells assessed as cell growth at 10 uM after 48 hrs by sulforhodamine B assay relative to control; assay type: functional; settings: U-251, 48 h, read-out: Activity
# [29] = tested on: SK-MEL-5; experiment: Growth inhibition of human SK-MEL-5 cells assessed as cell growth at 10 uM after 48 hrs by sulforhodamine B assay relative to control; assay type: functional; settings: SK-MEL-5, 48 h, read-out: Activity
# [30] = tested on: T47D; experiment: Growth inhibition of human T47D cells assessed as cell growth at 10 uM after 48 hrs by sulforhodamine B assay relative to control; assay type: functional; settings: read-out: Activity
# [31] = tested on: SR; experiment: Growth inhibition of human SR cells assessed as cell growth at 10 uM after 48 hrs by sulforhodamine B assay relative to control; assay type: functional; settings: read-out: Activity
# [32] = tested on: MCF7; experiment: Induction of apoptosis in human MCF7 cells assessed as late apoptotic cells at IC50 after 24 hrs by Annexin V-FITC/propidium iodide staining-based flow cytometric analysis (reference value: 0.077%); assay type: functional
# [33] = tested on: SK-MEL-28; experiment: Growth inhibition of human SK-MEL-28 cells assessed as cell growth at 10 uM after 48 hrs by sulforhodamine B assay relative to control; assay type: functional; settings: SK-MEL-28, 48 h, read-out: Activity
# Chain of Serine/threonine-protein kinase pim-1 (Homo sapiens) (P11309 whole entry, looked up): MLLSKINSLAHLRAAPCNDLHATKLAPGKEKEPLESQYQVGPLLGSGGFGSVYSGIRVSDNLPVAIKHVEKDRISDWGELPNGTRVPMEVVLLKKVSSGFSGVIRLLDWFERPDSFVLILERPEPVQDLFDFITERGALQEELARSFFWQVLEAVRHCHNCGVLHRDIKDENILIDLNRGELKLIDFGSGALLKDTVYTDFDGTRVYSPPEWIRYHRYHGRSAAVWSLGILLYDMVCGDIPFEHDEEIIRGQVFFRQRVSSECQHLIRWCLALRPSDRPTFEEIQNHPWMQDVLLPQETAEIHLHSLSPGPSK
# Chain of Calcium/calmodulin-dependent protein kinase type II subunit alpha (Homo sapiens) (Q9UQM7 whole entry): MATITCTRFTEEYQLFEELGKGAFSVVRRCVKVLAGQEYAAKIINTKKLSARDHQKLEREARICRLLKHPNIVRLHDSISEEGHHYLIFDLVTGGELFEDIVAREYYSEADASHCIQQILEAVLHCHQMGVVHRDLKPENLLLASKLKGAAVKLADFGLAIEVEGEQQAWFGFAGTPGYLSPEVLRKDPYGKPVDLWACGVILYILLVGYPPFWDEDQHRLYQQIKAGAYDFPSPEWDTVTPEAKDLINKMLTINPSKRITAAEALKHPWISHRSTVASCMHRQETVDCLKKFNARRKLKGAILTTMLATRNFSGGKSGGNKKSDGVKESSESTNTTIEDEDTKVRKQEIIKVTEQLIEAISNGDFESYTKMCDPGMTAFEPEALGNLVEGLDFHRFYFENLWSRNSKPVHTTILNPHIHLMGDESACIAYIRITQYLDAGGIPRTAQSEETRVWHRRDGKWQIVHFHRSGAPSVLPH
# Chain of Ribosomal protein S6 kinase beta-1 (Homo sapiens) (P23443 whole entry, looked up): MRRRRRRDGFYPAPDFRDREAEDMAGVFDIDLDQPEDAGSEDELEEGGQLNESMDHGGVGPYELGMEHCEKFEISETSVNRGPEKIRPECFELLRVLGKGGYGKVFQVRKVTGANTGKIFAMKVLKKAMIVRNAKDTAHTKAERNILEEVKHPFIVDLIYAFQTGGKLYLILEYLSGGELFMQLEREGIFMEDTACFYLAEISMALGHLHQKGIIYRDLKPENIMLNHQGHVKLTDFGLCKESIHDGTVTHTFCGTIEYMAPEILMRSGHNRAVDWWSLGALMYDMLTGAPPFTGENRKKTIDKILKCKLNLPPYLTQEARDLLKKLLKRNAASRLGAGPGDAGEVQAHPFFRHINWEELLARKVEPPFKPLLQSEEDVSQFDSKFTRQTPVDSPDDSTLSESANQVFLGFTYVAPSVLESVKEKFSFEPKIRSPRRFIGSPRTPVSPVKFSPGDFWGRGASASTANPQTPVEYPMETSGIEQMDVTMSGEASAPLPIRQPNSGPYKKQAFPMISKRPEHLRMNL
smiles,measurement,setting,value
COc1ccc(Cn2cc(C(=O)N/N=C3/C(=O)Nc4c(C)cccc43)nn2)cc1,growth at 10 µM,[1],-28.2%
same,Activity,[2],Active
same,growth at 10 µM,[3],83.5%
same,growth at 10 µM,[4],89.2%
same,inhibition,[5],inactive
same,growth at 10 µM,[6],80.1%
same,growth at 10 µM,[7],14.8%
same,growth at 10 µM,[8],84.8%
same,growth at 10 µM,[9],84.1%
same,inhibition,[10],inactive
same,growth at 10 µM,[11],7.1%
same,Activity,[12],0.75%
same,growth at 10 µM,[13],108%
same,growth at 10 µM,[14],68%
same,growth at 10 µM,[15],57.5%
same,growth at 10 µM,[16],51.3%
same,growth at 10 µM,[17],60.4%
same,growth at 10 µM,[18],56.1%
same,growth at 10 µM,[19],110%
same,inhibition,[20],inactive
same,growth at 10 µM,[21],46.7%
same,growth at 10 µM,[22],95.6%
same,growth at 10 µM,[23],93.7%
same,growth at 10 µM,[24],63.2%
same,growth at 10 µM,[25],82%
same,Activity,[26],0.59%
same,growth at 10 µM,[27],62.1%
same,growth at 10 µM,[28],108%
same,growth at 10 µM,[29],93.8%
same,growth at 10 µM,[30],81%
same,growth at 10 µM,[31],76.6%
same,Activity,[32],13.1%
same,growth at 10 µM,[33],94.9%
